Results from patent publication US4614741A, “Depot antiinflammatory agents” (priority 1983, dated 1986).

Key:
[1] = humans; p.o. versus i.m. in aqueous solution; cited from earlier work
[2] = system: carrageenan-induced oedema of the rat paw; assay: Inhibition of carrageenan-induced oedema of the rat paw after i.m. depot administration; type: in vivo, rat (male, Bor:WISW (SPF-Cpb))
Description: The antioedemic and analgesic effect of the test substances after i.m. administration of an appropriate depot formulation was determined using the carrageenan-induced oedema of the rat paw or using the Randall-Selittotest [Arch. int. Pharmacodyn.
The tests were carried out with male rats [strain: Bor:WISW (SPF-Cpb), weight about 200 g]. The animals receive a single i.m. administration of a depot product, and the antiinflammatory effect was checked on subsequent days by inducing oedema with carrageenan.
The paw volumes were measured by the method of F. Kemper and G. Ameln [Z. ges. exp.
Various doses were administered in a constant volume of 0.03 ml administered per rat (see Table).

CC(C(=O)O)c1cccc(C(=O)c2ccccc2)c1 (centres unmarked) [compound 13, 2-(m-Benzoylphenyl)-propionic acid]
maximum level in the plasma [1]: nor do the maximum level in the plasma, or the plasma and renal clearance differ

COc1ccc2c(c1)c(CC(=O)O)c(C)n2C(=O)c1ccc(Cl)cc1 [compound 18, 1-(p-Chlorobenzoyl)-5-methoxy-2-methylindole-3-acetic acid]
% inhibition of oedema, 2nd day after inj. ([2]; 10.0 mg/kg, solution): 58.2% | % inhibition of oedema, 2nd day after inj. ([2]; 10.0 mg/kg, suspension): 58.2% | % inhibition of oedema, 4th day after inj. ([2]; 10.0 mg/kg, solution): 29.5% | % inhibition of oedema, 4th day after inj. ([2]; 10.0 mg/kg, suspension): 29.5%

COc1ccc2cc([C@H](C)C(=O)O)ccc2c1 [compound 10, D-2-(6-Methoxy-2-naphthyl)propionic acid]
% inhibition of oedema, 2nd day after inj. ([2]; 2.5 mg/kg, suspension): 42.8% | % inhibition of oedema, 4th day after inj. ([2]; 2.5 mg/kg, suspension): 22.3%

CN1C(C(=O)Nc2nccs2)=C(O)c2ccccc2S1(=O)=O [compound 21, 4-Hydroxy-2-methyl-N--2-thiazolyl-2H--1,2-benzothiazine-3-carboxamide 1,1-dioxide]
% inhibition of oedema, 2nd day after inj. ([2]; 15 mg/kg, suspension): 42.9% | % inhibition of oedema, 4th day after inj. ([2]; 15 mg/kg, suspension): 30.4%

CN1C(C(=O)Nc2ccccn2)=C(O)c2ccccc2S1(=O)=O [compound 22, 4-Hydroxy-2-methyl-N--2-pyridinyl-2H--1,2-benzothiazine-3-carboxamide 1,1-dioxide]
% inhibition of oedema, 2nd day after inj. ([2]; 0.6 mg/kg, solution): 33.2% | % inhibition of oedema, 2nd day after inj. ([2]; 0.6 mg/kg, suspension): 33% | % inhibition of oedema, 4th day after inj. ([2]; 0.6 mg/kg, solution): 39.3% | % inhibition of oedema, 4th day after inj. ([2]; 0.6 mg/kg, suspension): 39%

O=C(O)c1cc(-c2ccc(F)cc2F)ccc1O [compound 3, 2',4'-Difluoro-4-hydroxy-3-biphenyl-carboxylic acid]
% inhibition of oedema, 2nd day after inj. ([2]; 5 mg/kg, suspension): 26% | % inhibition of oedema, 4th day after inj. ([2]; 5 mg/kg, suspension): 13%

CC(C)Cc1ccc(C(C)C(=O)O)cc1 (centres unmarked) [compound 11, 2-(p-Isobutylphenyl)-propionic acid]
% inhibition of oedema, 2nd day after inj. ([2]; 13 mg/kg, suspension): 40% | % inhibition of oedema, 4th day after inj. ([2]; 13 mg/kg, suspension): 45%
